Measurements published in patent US20110230447A1, “OSTEOGENESIS PROMOTER COMPRISING [4-(METHYLTHIO)PHENYLTHIO]METHANEBISPHOSPHONIC ACID OR PHARMACEUTICALLY ACCEPTABLE SALT THEREOF AS ACTIVE INGREDIENT” (Tohoku University, priority 2008, published 2011).
Entries after “also recorded” stand apart in the source; their conditions may differ.

How the values were obtained:
[1] = tested on: maxillary alveolar bone of a rabbit; experiment: Local subperiosteal injection at the maxillary alveolar bone of rabbits, pQCT and μCT analysis; type: in vivo
Method: FIG. 2 is a proliferation of the bone induced on the maxillary alveolar bone of a rabbit resulting from local administration of MPMBP (administration of a 1 mM or 10 mM solution every 4 days for 6 times). (pQCT: peripheral Quantitative Computerized Tomography image). A horizontal section in the vicinity of the cervical site of the maxillary molar teeth. Exp: A test side (side to which MPMBP was administered), cont: a control side (side to which 0.9% NaCl was administered). Arrows represent injected sites.
FIG. 3 is a proliferation of the bone induced on the maxillary alveolar bone of a rabbit resulting from local administration of MPMBP (administration of a 1 mM or 10 mM solution every 4 days for 6 times) (μCT image: microfocus Computerized Tomography image). A forehead cut of the midline region of the right and left maxillary first molars. exp: A test side (side to which MPMBP was administered). cont: A control side (side to which 0.9% NaCl was administered).
A total of 9 Japanese male rabbits with the average weight of 2.2 kg were used and they were divided into 3 groups of 3 rabbits each. Under the periosteum of the palatal alveolar bone between the teeth of the maxillary first molar and the maxillary second molar on the left side (experiment side) of the domestic rabbits in each group, 50 μl of a 0.1, 1.0, or 10 mM MPMBP solution was injected every 4 days for 6 times (all performed under anesthesia using Nembutal). To the same sites on the opposite side (the right side), 50 μl of a physiological saline solution (0.9% NaCl solution) was injected in the same manner, and was set to be a control. On the 4th day after the final injection, the animals were euthanized with excessive administration of Nembutal, and the maxillary bone was removed and fixed with a 10% neutral formalin solution (pH 7.4). With the alveolar bone in the vicinity of drug administration sites and the palatine bone as the region of interest, 3-dimensional analysis was performed using a pQCT (peripheral Quantitative Computerized Tomography; FIG. 2) and a μCT (microfocus Computerized Tomography; FIG. 3). […] This type of the osteogenesis promoting effect of MPMBP in the living body has not been reported with the existing bisphosphonate compound.

MC3T3-E1 cells [2] = experiment: Expression of osteogenesis-related genes in MC3T3-E1 cells by real-time RT-PCR; type: cell-based, mouse
Description: As an experiment to clarify the mechanism of the osteogenesis promoting action of MPMBP, using the osteoblast-based cell line MC3T3-E1 cells, the effect on expression of osteogenesis-related genes was studied using the real-time RT-PCR method. Moreover, the effect was compared with the action of zoledronate.
In the experiment, the osteoblast-based cell line MC3T3-E1 cells that reached the confluent after cultured with α-MEM (10% bovine serum supplementation) were used. For 3 days, they were cultured (used a dish with the diameter of 60 mm) under the presence of MPMBP (1, 10, or 100 μM) or zoledronate (0.1, 0.5 or 2.00 μM). After completion of culturing, cells were scraped and using Trizol, RNA was extracted. From 5 μg of RNA, cDNA was synthesized, specific primers were set with respect to alkaline phosphatase, the type I-α collagen, osteocalcin, and bone sialoprotein genes, PCR amplification was performed in the thermal cycler, and the amount of expression of the above genes was measured.

[3] = tested on: calvariae (bone organ culture system of a mouse); experiment: Bone organ culture system of mouse calvariae, staining and confocal laser scanning microscopy; type: cell-based; details: for bone resorption resulting from LPS, size of the resorption cavity: Nomarski images; for production of collagen (type I collagen fibers): MPMBP 100 μM, alendronate 2.0 μM, no heparin, vs control bone (FIG. 9); for production of the type I collagen / bone matrix: zoledronate 2.5 μM compared with MPMBP, presence or absence of LPS (FIG. 8)
Method: Using the bone organ culture system, what kind of effects MPMBP has on production of the bone matrix was studied. From 3-6 day old mice, calvariae were collected aseptically. These were cultured using the Stern and Krieger method (Calcif Tissue hit 1983; 35: 172-17) with DMEM (10% bovine serum supplementation, no supplementation of heparin, supplementation or no supplementation of LPS 10 μg/ml) for 48 hours. After completion of culturing, with the method described by Suzuki, Takeyama et al (J Histochem Cytochem 2005; 53: 1525-1537), a double staining of the type I collagen and alkaline phosphatase (FIG. 6 and FIG. 8), a double staining of the type I collagen and alizarin red (FIG. 7), and an immunohistochemical staining using the type I collagen (FIG. 9) were performed, and using a confocal laser scanning microscope, they were observed.
The upper panels are Nomarski differential interference contrast images of the bone surface. The middle panels are images of the bone surface after the double staining of the type I collagen and alkaline phosphatase was performed, and the lower panels are images of the bone section after the double staining of the type I collagen and alkaline phosphatase was performed, respectively. Using rhodamine for the type I collagen, red color could be observed, and using a substrate (ELF-97) that fluoresces when dephosphorylated for alkaline phosphatase (stain osteoblasts), the enzyme activity could be observed in green color.
The upper panels are Nomarski differential interference contrast images of the bone surface. […] The lower panels are images of the bone section after the double staining of the type I collagen and alizarin red was performed, and the collagen fibers could be observed in green color resulting from Alexa Fluor-488 and the bone mineral could be observed in red color resulting from alizarin red.
After the immunological double staining of the type I collagen and alkaline phosphatase was performed, as was the case with FIG. 6, using Alexa Fluor 594 for the type I collagen, it was stained in red color, and using the substrate (ELF-97) that fluoresces when dephosphorylated for alkaline phosphatase (osteoblasts), the enzyme activity was stained in green color. The upper panels are observation images of the bone surface and the lower panels are images of the bone section.

MC3T3-E1 cells [4] = experiment: Alkaline phosphatase (ALP) activity in osteoblast-like MC3T3-E1 cells; type: cell-based, mouse
Method: FIG. 4 is an effect of MPMBP (1, 10, and 100 μM) on the osteoblast lineage cell lines MC3T3-E1 cells.
FIG. 5 is an effect of bisphosphonate ([…] bisphosphonate, namely pamidronate, incadronate, and zoledronate. Respectively, 0.1, 1, and 10 μM) on the osteoblast-like cell line MC3T3-E1 cells.
Using the mouse skull-derived osteoblast-like cell line MC3T3-E1 cells (RIKEN Bio Resource Center, CELL BANK: RCB 1126), with respect to the alkaline phosphatase (ALP) activity, known as one index of osteogenesis, and also known as the index of differentiation of osteoblast precursor cells to osteoblasts, what kind of effects MPMBP has was studied. After MC3T3-E1 cells were cultured in a α-MEM (10% bovine serum supplementation) and after the confluent was reached, under the presence or absence of MPMBP (1, 10, and 100 μM), for 6, 10, or 20 days, they were cultured in the culture plate of 48 wells. After completion of culturing, a cell homogenate was prepared, and using the method by Lowry et al (J Biochem 1954; 207: 19-37), the ALP activity (per well) was measured.

[5] = 50 μl of 1.0 mM or 10 mM solution under the periosteum every 4 days for 6 times, vs 0.9% NaCl on the opposite side
[6] = 1, 10 and 100 μM, cultured 6, 10 or 20 days (FIG. 4)
[7] = 0.1, 1 and 10 μM, culture up to 3 weeks (FIG. 5)

## CSc1ccc(SC(P(=O)([O-])[O-])P(=O)(O)O)cc1.[Na+].[Na+] [MPMBP, [4-(methylthio)phenylthio]-methanebisphosphonic acid.disodium salt]
[1]; 0.1 mM, 50 μl every 4 days for 6 times
  bone changes (osteogenesis promoting effect) in the 0.1 mM group: the effect was not clear
[1]; 10 mM vs 1.0 mM, 50 μl every 4 days for 6 times
  bone changes, 10 mM group compared to 1.0 mM group: stronger for the 10 mM administration group
[1]; [5]
  bone addition to the palatal side of the alveolar bone (proliferation of the alveolar bone), pQCT: a proliferation of the alveolar bone is observed; also recorded: bone addition to the palatal side of the alveolar bones
  thickness of the palatine bone from the alveolar site to the middle of the palate, μCT: the thickness of the palatine bone is increasing; also recorded: the thickness of the palatine bone increased
MC3T3-E1 cells [2]; MPMBP 100 μM (1, 10, 100 μM tested), 3 days (72 hours) (FIG. 10)
  expression of alkaline phosphatase, type I-α collagen, osteocalcin and bone sialoprotein genes: promoted gene expression of all of the above; also recorded: increased significantly in all genes
[3]; 48 hours, LPS, vs control bone (FIG. 7)
  bone resorption resulting from LPS, size of the resorption cavity: the bone resorption was inhibited resulting from LPS and the size of the resorption cavity that was formed from LPS was significantly smaller; also recorded: the bone resorption was inhibited resulting from LPS and the size of the resorption cavity that was formed by LPS was significantly small
[3]; 48 hours, presence or absence of LPS, vs control bone (FIG. 7)
  production of the bone matrix (type I collagen, Alexa Fluor-488): production of the bone matrix (sites in green color) was promoted significantly; also recorded: production of the bone matrix (sites in green color) significantly increased
[3]; 48 hours, vs control bone (FIG. 7)
  thickness of the bone mineral (alizarin red): the thickness of the bone mineral (sites in red color) was thick
[3]; MPMBP 25 μM, 48 hours, DMEM, presence or absence of LPS 10 μg/ml, vs control bone (FIG. 6)
  production of the bone matrix (type I collagen): production of the bone matrix (sites in red color) was promoted significantly; also recorded: production of the bone matrix (type I collagen: sites in red) significantly increased
[3]; MPMBP 25 μM, 48 hours, LPS 10 μg/ml, vs control bone (FIG. 6)
  bone resorption resulting from LPS, size of the resorption cavity: the bone resorption was inhibited resulting from LPS and the size of a resorption cavity that was formed from LPS was significantly smaller; also recorded: the bone resorption was inhibited resulting from LPS and the size of the resorption cavity that was formed by LPS was significantly small
[3]; 48 hours
  production of collagen (type I collagen fibers): a large amount of thick collagen fibers was produced in a fascicular shape and the bone surface was densely covered
  production of the type I collagen / bone matrix: significantly promoted production of the bone matrix; also recorded: significantly increased production of the bone matrix
[3]; bone organ culture system
  concentration indicating the same level of the inhibitory action of the bone resorption in the bone organ culture system: 100 µM
MC3T3-E1 cells [4]; [6]
  ALP activity (per well): increase an alkaline phosphatase activity in a dose-dependent manner and with time; also recorded: increased the ALP activity in a dose-dependent manner and with time

## NCCCC(O)(P(=O)(O)O)P(=O)(O)O [alendronate, reference compound]
[3]; 48 hours
  production of collagen (type I collagen fibers): production of the collagen increased were observed; however, the degree was small, compared to MPMBP

## O=P(O)(O)C(Cl)(Cl)P(=O)(O)O [clodronate]
MC3T3-E1 cells [4]; [6]
  ALP activity (per well): increase an alkaline phosphatase activity in a dose-dependent manner and with time; also recorded: increased the ALP activity

## O=P(O)(O)C(NC1CCCCCC1)P(=O)(O)O [incadronate]
MC3T3-E1 cells [4]; [7]
  ALP activity (per well): the alkaline phosphatase activity is inhibited or the alkaline phosphatase activity is not affected; also recorded: the ALP activity was significantly reduced in high concentration

## NCCC(O)(P(=O)(O)O)P(=O)(O)O [pamidronate]
MC3T3-E1 cells [4]; [7]
  ALP activity (per well): the alkaline phosphatase activity is inhibited or the alkaline phosphatase activity is not affected; also recorded: no significant change was observed

## O=P(O)(O)C(O)(Cn1ccnc1)P(=O)(O)O [zoledronate, reference compound]
MC3T3-E1 cells [2]; zoledronate 0.1, 0.5 or 2.00 μM, 3 days (FIG. 11)
  expression of alkaline phosphatase, type I-α collagen, osteocalcin and bone sialoprotein genes: no significant change was caused to the amount of expression of these genes
MC3T3-E1 cells [2]; zoledronate 0.1, 0.5 or 2.00 μM, 3 days (FIG. 11), listed as Zoledronate
  expression of alkaline phosphatase, type I-α collagen, osteocalcin and bone sialoprotein genes: did not significantly affect gene expression of all of the above
[3]; 48 hours
  production of the type I collagen / bone matrix: inhibited production of the type I collagen
MC3T3-E1 cells [4]; [7]
  ALP activity (per well): the alkaline phosphatase activity is inhibited or the alkaline phosphatase activity is not affected; also recorded: the ALP activity was significantly reduced in high concentration
